{"source": "patent US11173196B2", "about": "“Vectors for expression of prostate-associated antigens” (Pfizer Inc., priority 2013, dated 2021)", "key": {"[1]": {"conditions": "cited from earlier work"}, "rhesus PSMA": {"test_system": "rhesus PSMA", "test": "IFNγ ELISPOT from PBMCs, rhesus PSMA adenovirus vaccine with subcutaneous anti-CTLA-4 antibody", "assay_type": "in vivo, Indian rhesus macaques", "procedure": "Animal Treatment and Sample Collection. Five groups of male Indian rhesus macaques, seven (#1 to 7) per each test group, were immunized with an adenovirus encoding a rhesus PSMA modified polypeptide delivered by bilateral intramuscular injections (2× 5e10 V.P.). Immediately following the adenovirus injections, group 1 received vehicle, and groups 2 to 4 received bilateral subcutaneous injections of anti-CTLA-4 antibody (CP-675, 206) at doses 2× 25 mg, 2× 16.7 mg and 2× 8.4 mg respectively in proximity to the vaccine draining lymph node.\nNine days after the immunization, peripheral blood mononuclear cells (PBMCs) were isolated from each animal and were subjected to an IFNγ ELISPOT assay to measure the rhesus PSMA specific T cell responses. Briefly, 4e5 PBMCs from individual animals were plated per well with pools of rhesus PSMA specific peptides (P1, P2, P3 or R1+R2 defined in Table 24A) or nonspecific control peptides (human HER2 peptide pool) each at 2 ug/ml in IFN[…] ELISPOT plates. The plates were incubated for 16 hrs at 37° C. and 5% CO2 and washed and developed after incubation as per manufacturer's instruction. The number of IFNγ spot forming cells (SFC) was counted by CTL reader. Each condition was performed in duplicates. The average of the duplicates from the background adjusted SFC of the rhesus PSMA specific peptide pools was normalized to the response in 1e6 PBMCs.\nIFNγ ELISPOT Assay Procedure. A capture antibody specific to IFNγ ([…]BD Bioscience, #51-2525kc) is coated onto a polyvinylidene fluoride (PVDF) membrane in a microplate overnight at 4° C. The plate is blocked with serum/protein to prevent nonspecific binding to the antibody. After blocking, effector cells (such as splenocytes isolated from immunized mice or PBMCs isolated from rhesus macaques) and targets (such as PSMA peptides from peptide library, target cells pulsed with antigen specific peptides or tumor cells expressing the relevant antigens) are added to the wells and incubated overnight at 37° C. in a 5% CO2 incubator. […]"}, "[2]": {"conditions": "cited from earlier work", "remark": "listed apart in the source"}, "293 cells": {"test_system": "293 cells", "test": "Expression of PSMA constructs in mammalian 293 cells by FACS", "assay_type": "cell-based", "procedure": "The expression of the PSMA cytosolic, secreted, and modified antigens was determined by FACS. Mammalian 293 cells were transfected with the PJV7563 PMED vectors encoding the various immunogenic PSMA polypeptides. Three days later, the 293 cells were stained with mouse anti-PSMA antibody, followed with a fluorescent conjugated (FITC) rat anti-mouse secondary antibody."}}, "note": "Like-named read-outs stand apart in the source and are kept apart here.", "data": [{"substance": "5′ TCGTCGTTTTGTCGTTTTGTCGTT3′ [CpG7909]", "values": [{"measurement": "dose limiting toxicity", "setting": "[1]; single dose subcutaneous", "value": "myalgia and constitutional effects"}, {"measurement": "maximum tolerated dose (MTD)", "setting": "[1]; single dose subcutaneous", "value": 0.45, "unit": "mg/kg"}, {"measurement": "dose well tolerated with no clinical effects and no significant toxicity", "setting": "[1]; single intravenous dose", "value": "up to 1.05 mg/kg"}]}, {"substance": "CP-675,206: fully human IgG2 anti-CTLA-4 monoclonal antibody, CAS 745013-59-6", "values": [{"measurement": "vaccine induced immune response compared to vaccine alone", "setting": "rhesus PSMA; 16.7 mg subcutaneous (group 4), P=0.05", "value": "significantly enhanced"}, {"measurement": "vaccine induced immune response compared to vaccine alone", "setting": "rhesus PSMA; 33.4 mg subcutaneous (group 3), P=0.004", "value": "significantly enhanced"}, {"measurement": "vaccine induced immune response compared to vaccine alone", "setting": "rhesus PSMA; dose of 50 mg subcutaneous (group 2), P=0.001 by Student's T-test", "value": "significantly enhanced"}]}, {"substance": "CP-870893: fully human agonistic CD40 monoclonal antibody, heavy and light chain SEQ ID NO: 40 and 41", "values": [{"measurement": "dose-limiting toxicities", "setting": "[2]; human, in vivo, iv", "value": "grade 3 CRS and grade 3 urticaria"}, {"measurement": "maximum tolerated dose (MTD)", "setting": "[2]; phase I clinical study, intravenous infusion", "value": 0.2, "unit": "mg/kg"}]}, {"substance": "human PSMA modified antigen (SEQ ID NO: 9): immunogenic polypeptide of amino acids 15-750 of human PSMA, membrane-bound, expressed from DNA construct in PJV7563 vector", "values": [{"measurement": "Average mean fluorescent intensity", "setting": "293 cells; 293 cells transfected with PJV7563 vector, stained three days later with mouse anti-PSMA antibody", "value": 12270}, {"measurement": "expression on the cell surface", "setting": "293 cells; transfected 293 cells, FACS", "value": "expressed on the cell surface"}]}]}
